In PubChem BioAssay (NCI):
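Method: 48-hour compound exposure of cells in 96-well plates, five concentrations, linear interpolation of endpoints. The concentration for 50% growth inhibition is given as GI50. TGI: total growth inhibition.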

Legend:
Experiment in all cases: DTP human tumour cell line panel, 48 h
A498 renal = system: A498 renal
A549 NSCLC = system: A549 NSCLC
ACHN renal = system: ACHN renal
BT-549 breast = system: BT-549 breast
CCRF-CEM leukemia = system: CCRF-CEM leukemia
COLO 205 colon = system: COLO 205 colon
DU-145 prostate = system: DU-145 prostate
EKVX NSCLC = system: EKVX NSCLC
HCC-2998 colon = system: HCC-2998 colon
HCT-15 colon = system: HCT-15 colon
HL-60(TB) leukemia = system: HL-60(TB) leukemia
HOP-62 NSCLC = system: HOP-62 NSCLC
HS 578T breast = system: HS 578T breast
HT29 colon = system: HT29 colon
IGROV1 ovarian = system: IGROV1 ovarian
K-562 leukemia = system: K-562 leukemia
KM12 colon = system: KM12 colon
LOX IMVI melanoma = system: LOX IMVI melanoma
M14 melanoma = system: M14 melanoma
MALME-3M melanoma = system: MALME-3M melanoma
MDA-MB-231 breast = system: MDA-MB-231 breast
MDA-MB-435 = system: MDA-MB-435
MOLT-4 leukemia = system: MOLT-4 leukemia
NCI-H226 lung = system: NCI-H226 lung
NCI-H23 lung = system: NCI-H23 lung
NCI-H460 lung = system: NCI-H460 lung
NCI-H522 lung = system: NCI-H522 lung
NCI/ADR-RES ovarian = system: NCI/ADR-RES ovarian
OVCAR-3 ovarian = system: OVCAR-3 ovarian
OVCAR-4 ovarian = system: OVCAR-4 ovarian
OVCAR-5 ovarian = system: OVCAR-5 ovarian
OVCAR-8 ovarian = system: OVCAR-8 ovarian
PC-3 prostate = system: PC-3 prostate
RPMI-8226 leukemia = system: RPMI-8226 leukemia
RXF 393 renal = system: RXF 393 renal
SF-268 CNS = system: SF-268 CNS
SF-295 CNS = system: SF-295 CNS
SF-539 CNS = system: SF-539 CNS
SK-MEL-2 melanoma = system: SK-MEL-2 melanoma
SK-MEL-28 melanoma = system: SK-MEL-28 melanoma
SK-MEL-5 melanoma = system: SK-MEL-5 melanoma
SK-OV-3 ovarian = system: SK-OV-3 ovarian
SN12C renal = system: SN12C renal
SNB-19 CNS = system: SNB-19 CNS
SNB-75 CNS = system: SNB-75 CNS
SR leukemia = system: SR leukemia
SW-620 colon = system: SW-620 colon
T-47D breast = system: T-47D breast
TK-10 renal = system: TK-10 renal
U251 CNS = system: U251 CNS
UACC-257 melanoma = system: UACC-257 melanoma
UACC-62 melanoma = system: UACC-62 melanoma
UO-31 renal = system: UO-31 renal

For `C#C[C@@]1(O)[C@@H](CO)O[C@@H](n2cc(F)c3c(N)ncnc32)[C@@H]1O`, the GI50 (A498 renal) was 725 nM, the TGI (A498 renal) was 2270 nM and the GI50 (A549 NSCLC) was 377 nM. For the same compound, the TGI (A549 NSCLC) was 2640 nM, the GI50 (ACHN renal) was 240 nM and the TGI (ACHN renal) was over 100000 nM. It also gave a GI50 (BT-549 breast) of 843 nM, a TGI (BT-549 breast) of 4180 nM and a GI50 (CCRF-CEM leukemia) of 338 nM. For the same compound, the TGI (CCRF-CEM leukemia) was over 100000 nM, the GI50 (COLO 205 colon) was 263 nM and the TGI (COLO 205 colon) was 1300 nM. It also gave a GI50 (DU-145 prostate) of 354 nM, a TGI (DU-145 prostate) of 13400 nM and a GI50 (EKVX NSCLC) of 675 nM. It also gave a TGI (EKVX NSCLC) of 11300 nM, a GI50 (HCC-2998 colon) of 600 nM and a TGI (HCC-2998 colon) of 2820 nM. For the same compound, the GI50 (HCT-15 colon) was 297 nM, the TGI (HCT-15 colon) was 3190 nM and the GI50 (HL-60(TB) leukemia) was 436 nM. The TGI (HL-60(TB) leukemia) was 3530 nM, the GI50 (HOP-62 NSCLC) was 571 nM and the TGI (HOP-62 NSCLC) was 7790 nM. It also gave a GI50 (HS 578T breast) of 3970 nM, a TGI (HS 578T breast) of over 100000 nM and a GI50 (HT29 colon) of 207 nM. For the same compound, the TGI (HT29 colon) was over 100000 nM, the GI50 (IGROV1 ovarian) was 324 nM and the TGI (IGROV1 ovarian) was 1420 nM. The GI50 (K-562 leukemia) was 285 nM, the TGI (K-562 leukemia) was over 100000 nM and the GI50 (KM12 colon) was 502 nM. For the same compound, the TGI (KM12 colon) was 24900 nM, the GI50 (LOX IMVI melanoma) was 279 nM and the TGI (LOX IMVI melanoma) was 1110 nM. For the same compound, the GI50 (M14 melanoma) was 481 nM, the TGI (M14 melanoma) was 2390 nM and the GI50 (MALME-3M melanoma) was 362 nM. For the same compound, the TGI (MALME-3M melanoma) was 1810 nM, the GI50 (MDA-MB-231 breast) was 379 nM and the TGI (MDA-MB-231 breast) was 2980 nM. It also gave a GI50 (MDA-MB-435) of 416 nM, a TGI (MDA-MB-435) of 3260 nM and a GI50 (MOLT-4 leukemia) of 304 nM. For the same compound, the TGI (MOLT-4 leukemia) was over 100000 nM, the GI50 (NCI-H226 lung) was 521 nM and the TGI (NCI-H226 lung) was 2630 nM. It also gave a GI50 (NCI-H23 lung) of 398 nM, a TGI (NCI-H23 lung) of 6850 nM and a GI50 (NCI-H460 lung) of 231 nM. The TGI (NCI-H460 lung) was 10200 nM, the GI50 (NCI-H522 lung) was 180 nM and the TGI (NCI-H522 lung) was 929 nM. For the same compound, the GI50 (NCI/ADR-RES ovarian) was 306 nM, the TGI (NCI/ADR-RES ovarian) was 11300 nM and the GI50 (OVCAR-3 ovarian) was 1110 nM. It also gave a TGI (OVCAR-3 ovarian) of over 100000 nM, a GI50 (OVCAR-4 ovarian) of 1010 nM and a TGI (OVCAR-4 ovarian) of 8670 nM. It also gave a GI50 (OVCAR-5 ovarian) of 1780 nM, a TGI (OVCAR-5 ovarian) of over 100000 nM and a GI50 (OVCAR-8 ovarian) of 256 nM. The TGI (OVCAR-8 ovarian) was 3690 nM, the GI50 (PC-3 prostate) was 293 nM and the TGI (PC-3 prostate) was 3240 nM. It also gave a GI50 (RPMI-8226 leukemia) of 221 nM, a TGI (RPMI-8226 leukemia) of 1980 nM and a GI50 (RXF 393 renal) of 727 nM. It also gave a TGI (RXF 393 renal) of 2990 nM, a GI50 (SF-268 CNS) of 751 nM and a TGI (SF-268 CNS) of 78300 nM. For the same compound, the GI50 (SF-295 CNS) was 653 nM, the TGI (SF-295 CNS) was 2330 nM and the GI50 (SF-539 CNS) was 1310 nM. It also gave a TGI (SF-539 CNS) of 5290 nM, a GI50 (SK-MEL-2 melanoma) of 446 nM and a TGI (SK-MEL-2 melanoma) of 2870 nM. The GI50 (SK-MEL-28 melanoma) was 4260 nM, the TGI (SK-MEL-28 melanoma) was over 100000 nM and the GI50 (SK-MEL-5 melanoma) was 267 nM. The TGI (SK-MEL-5 melanoma) was 1330 nM, the GI50 (SK-OV-3 ovarian) was 285 nM and the TGI (SK-OV-3 ovarian) was 2090 nM. The GI50 (SN12C renal) was 302 nM, the TGI (SN12C renal) was 4740 nM and the GI50 (SNB-19 CNS) was 524 nM. It also gave a TGI (SNB-19 CNS) of 13700 nM, a GI50 (SNB-75 CNS) of 1030 nM and a TGI (SNB-75 CNS) of 2320 nM. For the same compound, the GI50 (SR leukemia) was 185 nM, the TGI (SR leukemia) was over 100000 nM and the GI50 (SW-620 colon) was 159 nM. It also gave a TGI (SW-620 colon) of 2900 nM, a GI50 (T-47D breast) of 214 nM and a TGI (T-47D breast) of 770 nM. For the same compound, the GI50 (TK-10 renal) was 736 nM, the TGI (TK-10 renal) was 6560 nM and the GI50 (U251 CNS) was 631 nM. It also gave a TGI (U251 CNS) of 11600 nM, a GI50 (UACC-257 melanoma) of 487 nM and a TGI (UACC-257 melanoma) of 4640 nM. For the same compound, the GI50 (UACC-62 melanoma) was 331 nM, the TGI (UACC-62 melanoma) was 1470 nM and the GI50 (UO-31 renal) was 470 nM. For the same compound, the TGI (UO-31 renal) was 2480 nM.
